“Also recorded” adds a separate entry of the source.
B1: Noggin: recombinant Noggin, an inhibitor of Bmp signaling (protein, UniProt P97466 28-232, looked up)
Noggin: QHYLHIRPAPSDNLPLVDLIEHPDPIFDPKEKDLNETLLRSLLGGHYDPGFMATSPPEDRPGGGGGPAGGAEDLAELDQLLRQRPSGAMPSEIKGLEFSEGLAQGKKQRLSKKLRRKLQMWLWSQTFCPVLYAWNDLGSRFWPRYVKVGSCFSKRSCSVPEGMVCKPSKSVHLTVLRWRCQRRGGQRCGWIPIQYPIISECKCSC

Tests used:
[1] = system: primary limb bud cells (PLBCs); test: Cell death by trypan blue staining in PLBCs; format: cell-based, chicken; conditions: for effect on juglone-induced cell death in PLBCs: pre-treatment for one hour, juglone 5 μM two hours; for effect on BMP4-induced PCD in PLBCs: rh BMP4 300 ng/ml; for effect on thalidomide-induced cell death in PLBCs: thalidomide 10 μg/ml, six hours
Description: (§1) Primary limb bud cells (PLBCs) were isolated from 60 pooled wing and hindlimb buds of HH stages 23/24 embryos. Fibroblasts were gained from HH stage 34 chicken embryos or from 13.5 d.p.c. mouse embryos. Human embryonic fibroblasts were provided by Matthias Maass (2). Before adding reagents, all cell types were cultured for 16 hours in D-MEM (Gibco) plus 10% fetal calf serum (FCS) and 2% chicken serum. Treatment with thalidomide, phthalimide, recombinant human (rh) BMP4 (300 ng/ml; R&D Systems), juglone (5 μM; Sigma), recombinant mouse Noggin (30, 300, 1000 ng/ml in FIG. 4B; 300 ng/ml in FIGS. 4C and 6A), anti-human-DKK1 antibody (35, 350 and 1000 ng/ml in FIG. 4B; 350 ng/ml in FIGS. 4C and 6A), LiCl (3, 30, 60 mM in FIG. 4B; 30 mM in FIGS. 4C, 6A and 6C) and/or (2Z,3E)-6-Bromoindirubin-3-oxime (BIO, Gsk3-Inhibitor IX; 50, 500, 1000 nM in FIG. 4B; 500 nM in FIG. 6A; 50 and 500 nM in FIG. 6C; Calbiochem) were performed in Optimem1 (Invitrogen) plus 1% FCS. Unless otherwise noted, all treatments with thalidomide and rh-BMP4 and associated controls were done for six hours. Inhibitors were applied once at the beginning of incubation with the exception of LiCl that was added 150 minutes before harvesting the cells for further analyses. Pre-treatment with phenyl-N-t-butylnitrone (PBN; 2 mM; Sigma) was performed for one hour. Incubations with juglone were performed for two hours, if applicable, after a pre-treatment with PBN, Noggin, anti-Dkk1 antibody, LiCl or Gsk3-Inhibitor IX for one hour.
(§2) Cell death in PLBCs, CEFs, MEFs and HEFs was detected by staining with trypan blue (0.1% (w/v) in PBS; Sigma) for 90 seconds. Cells were counted in a counting chamber to determine the ratio of dead to live cells.

[2] = system: primary chicken embryonic fibroblasts (CEFs); test: Cell death by trypan blue staining in CEFs; format: cell-based; conditions: data not shown
Description: as §1, §2

[3] = system: human embryonic fibroblasts (HEFs); test: Cell death by trypan blue staining in HEFs; format: cell-based; conditions: for effect on thalidomide-induced cell death in HEFs: Noggin 300 ng/ml, anti-DKK1 antibody 350 ng/ml, LiCl 30 mM
Description: as §1, §2

[4] = system: limb buds of HH stages 23/24 chicken embryos; test: Whole mount TUNEL staining of limb buds; format: in vivo; conditions: LiCl 0.6 mg per embryo at HH stages 17-19, 19 of 80
Description: TUNEL staining was performed as described (7).

chicken embryos [5] = test: Inhibitors counteracting thalidomide-induced limb truncations and microphthalmia in chicken embryos; format: in vivo; conditions: for embryos with limb truncations, thalidomide-treated plus inhibitor: Noggin 100 ng/embryo or LiCl 0.6 mg/embryo at HH stages 17-19
Description: (§3) Fertilized eggs were purchased from Deindl GmbH, Rietberg-Varensell. They were incubated at 38° C. in a humidified incubator, windowed after one day and staged according to Hamburger and Hamilton (HH stage). Racemic thalidomide (Celgene), thalidomide enantiomers or phthalimide (Sigma) were dissolved in DMSO at 5 mg/ml and further diluted in PBS. Embryos were exposed to drugs by dropping 15 μg-3 mg thalidomide or phthalimide per kg egg weight (about 1-200 μg per embryo) in 50 μl DMSO/PBS as a single dose at HH stages 0-13 onto the embryo. Thalidomide (50 μg) or phthalimide (50 μg) in 10 μl DMSO was injected into the extra-embryonic blood vessels of HH 19 stage embryos. LiCl (99% pure, Sigma) was dissolved in sterile PBS. LiCl (0.1, 0.6 or 3.2 mg) was applied at HH stages 17-19 by dropping 500 μl of a 5 mM, 28 mM or 151 mM LiCl solution onto the embryo. Recombinant Noggin, Dkk1 specific goat IgG (R&D Systems) or serum of non-immunized goats (Sigma) was dissolved in 0.1% BSA/0.01% Fast Green/PBS. Noggin (10 or 100 ng), Dkk1 specific goat IgG (5 or 50 ng) or serum of non-immunized goats (50 ng) was applied to a single embryo at HH stages 17-19 by injecting a 10 μl solution through the extra-embryonic membranes.
(§4) The morphology of the limbs was studied in specimens fixed in 5% trichloroacetic acid and stained for cartilage with alcian green as described (3).

[6] = system: Dkk1 and Bmp expression in limb buds; test: sqRT-PCR and whole mount in situ hybridization of Dkk1 and Bmp expression in limb buds; format: in vivo, chicken; conditions: data not shown
Description: (§5) RNA isolation, semi-quantitative RT-PCRs and whole mount in situ hybridizations were performed according to standard protocols that are well known within the art. RNA was isolated using TRIZOL (Gibco BRL) followed by DNAseI digestion. First strand synthesis was carried out with the Expand RT System (Roche) according to the manufacturer's instructions. PCR amplification was carried out primers and conditions within the knowledge of a person having skill in the relevant art. Quantifications were performed using NIH Image 1.62.

[7] = system: Bmp4 and Dkk1 expression in PLBCs; test: sqRT-PCR of Bmp4 and Dkk1 expression in PLBCs; format: cell-based, chicken
Description: as §1, §5

[8] = system: Bmp4 and Dkk1 expression in HEFs; test: sqRT-PCR of Bmp4 and Dkk1 expression in HEFs; format: cell-based, human
Description: as §1, §5

chicken embryos [9] = test: Thalidomide-induced limb truncations and microphthalmia in chicken embryos; format: in vivo; conditions: applied to chicken embryos, control reagent
Description: as §3, with “LiCl (99% pure, Sigma) was dissolved in sterile PBS. LiCl (0.1, 0.6 or 3.2 mg) was applied at HH stages 17-19 by dropping 500 μl of a 5 mM, 28 mM or 151 mM LiCl solution onto the embryo.” left out
as §4

Wnt/β-catenin signaling = test: TOPflash luciferase reporter assay in CEFs; format: cell-based, chicken; conditions: Wnt3a-conditioned medium, 24 hours
Description: Plasmids with wild type (TOPflash) or mutated (FOPflash) LEF/TCF binding sites (5) upstream of a luciferase reporter gene were transiently transfected into CEFs using Lipofectamine (Invitrogen). Following transfection for 24 hours, the cells were exposed to Wnt3a-conditioned medium or to control medium (6) with or without thalidomide or recombinant human DKK1 (150 ng/ml, R&D Biosystems) for 24 hours prior to luciferase assay. Values were normalized for transfection efficiency by co-transfection with a pSV-β-galactosidase vector and for the number of living cells. Luciferase activity was measured using the Dual-Light System (Applied Biosystems).

Row | Molecule | effect on juglone-induced cell death in PLBCs [1] | effect on BMP4-induced PCD in PLBCs [1] | effect on thalidomide-induced cell death in PLBCs [1] | effect on thalidomide-induced cell death in CEFs [2] | effect on thalidomide-induced cell death in HEFs [3] | embryos with limb truncations, thalidomide-treated plus inhibitor (chicken embryos [5]) [%] | other results
1 | [Cl-].[Li+] [LiCl] | could be inhibited | counteracted BMP4-induced PCD in a dose-dependent manner | completely abrogate | block thalidomide-induced cell death | block thalidomide-induced cell death | 5 | individual limb buds with enhanced PCD (TUNEL) in thalidomide-treated embryos given inhibitor [4]: 24%; rescue of thalidomide-induced microphthalmia (chicken embryos [5]; 0.6 mg LiCl): did not rescue; embryos with thalidomide-induced microphthalmia plus LiCl (chicken embryos [5]; 3.2 mg LiCl per embryo): 9%
2 | O=C1NC(=O)c2ccccc21 [phthalimide] |  |  |  |  |  |  | induction of PCD in PLBCs [1]: did not induce PCD; Bmp and Dkk1 expression in limb buds [6]: not altered; expression of Bmp4 and Dkk1 in PLBCs ([7]; 10 μg/ml, six hours): did not influence the expression; potential to induce PCD in HEFs [3]: did not induce PCD; expression of Bmp4 and Dkk1 in HEFs ([8]; 10 μg/ml, six hours): did not influence the expression; limb or eye defects (chicken embryos [9]): did not cause limb or eye defects
3 | CC(C)(C)[N+]([O-])=Cc1ccccc1 [PBN, phenyl-N-t-butylnitrone] | completely reduces; also recorded: could be inhibited | no significant effect; also recorded: did not influence | completely reduces; also recorded: completely inhibited |  |  |  | effect on up-regulation of Bmp4 and Dkk1 expression in thalidomide-treated PLBCs ([7]; pre-treatment with PBN, data not shown): abolishes the up-regulation; effect on up-regulation of Bmp4 and Dkk1 expression in thalidomide-treated HEFs ([8]; pre-treatment with PBN): abolishes the up-regulation
4 | O=C1Nc2cc(Br)ccc2/C1=C1/Nc2ccccc2/C1=N\O [Gsk3-Inhibitor IX, (2Z,3E)-6-Bromoindirubin-3-oxime] | could be inhibited | counteracted BMP4-induced PCD in a dose-dependent manner | completely abrogate |  |  |  | 
5 | recombinant DKK1: recombinant human DKK1, positive control in the TOPflash assay |  |  |  |  |  |  | effect on Wnt3a-induced TOPflash activity (Wnt/β-catenin signaling): clearly counteracted
6 | B1 | could be inhibited |  | only a partial neutralization; also recorded: clearly reduced | block thalidomide-induced cell death | block thalidomide-induced cell death | 5 | 

Reference: US7723301B2, “Pharmaceutical compositions comprising an anti-teratogenic compound and applications of the same” (The Board of Trustees of the University of Arkansas, priority 2007, dated 2010)
